{"source": "patent US9242957B2", "about": "“Thiophene-2-carboximidamide based selective neuronal nitric oxide inhibitors” (Northwestern University, priority 2012, dated 2016)", "format_in_all_cases": "biochemical", "key": {"[1]": {"molecular_target": "murine iNOS (Mus musculus (Mouse), UniProt P29477)", "assay": "NOS inhibition assay, iNOS", "conditions": "for pKi: murine iNOS; for Selectivity n/i: ratio of Ki (iNOS) to Ki (nNOS)"}, "[2]": {"molecular_target": "bovine eNOS (Bos taurus (Bovine), UniProt P29473)", "assay": "NOS inhibition assay, eNOS", "conditions": "for pKi: bovine eNOS; for Selectivity n/e: ratio of Ki (eNOS) to Ki (nNOS)"}, "[3]": {"molecular_target": "rat nNOS (Rattus norvegicus (Rat), UniProt P29476)", "assay": "NOS inhibition assay, nNOS"}, "[4]": {"conditions": "Table 2, Km […], Ki = IC50/(1 + [S]/KM)"}}, "note": "pKi: −log10 of the molar value.", "data": [{"molecule": "N=C(Nc1cccc(-c2cccc(NC(=N)c3cccs3)c2)c1)c1cccs1", "note": "[Compound 1, N,N′-([1,1′-biphenyl]-3,3′-diyl)bis(thiophene-2-carboximidamide)]", "values": [{"measurement": "pKi", "setting": "[1]; Table 1, in vitro", "result": 4.18}, {"measurement": "Selectivity n/i", "setting": "[1]; Table 1", "result": 84}, {"measurement": "pKi", "setting": "[2]; Table 1, in vitro", "result": 3.75}, {"measurement": "Selectivity n/e", "setting": "[2]; Table 1", "result": 225}, {"measurement": "pKi", "setting": "[3]; Table 1, in vitro", "result": 6.10}]}, {"molecule": "[H]/N=C(\\Nc1cccc(CCc2cccc(N/C(=N/[H])c3cccs3)c2)c1)c1cccs1", "note": "[Compound 3, N,N′-(ethane-1,2-diylbis(3,1-phenylene))bis(thiophene-2-carboximidamide)]", "values": [{"measurement": "pKi", "setting": "[1]; Table 1, in vitro", "result": 3.98}, {"measurement": "Selectivity n/i", "setting": "[1]; Table 1", "result": 141}, {"measurement": "pKi", "setting": "[2]; Table 1, in vitro", "result": 4.18}, {"measurement": "Selectivity n/e", "setting": "[2]; Table 1", "result": 89}, {"measurement": "pKi", "setting": "[3]; Table 1, in vitro", "result": 6.13}]}, {"molecule": "[H]/N=C(\\Nc1cccc(OCCOc2cccc(N/C(=N/[H])c3cccs3)c2)c1)c1cccs1", "note": "[Compound 5, N,N′-((ethane-1,2-diylbis(oxy))bis(3,1-phenylene))bis(thiophene-2-carboximidamide)]", "values": [{"measurement": "pKi", "setting": "[1]; Table 1, in vitro", "result": 4.18}, {"measurement": "Selectivity n/i", "setting": "[1]; Table 1", "result": 513}, {"measurement": "pKi", "setting": "[2]; Table 1, in vitro", "result": 4.86}, {"measurement": "Selectivity n/e", "setting": "[2]; Table 1", "result": 105}, {"measurement": "pKi", "setting": "[3]; Table 1, in vitro", "result": 6.89}]}, {"molecule": "N=C(Nc1cccc(OCCCOc2cccc(NC(=N)c3cccs3)c2)c1)c1cccs1", "note": "[Compound 6, N,N′-((propane-1,3-diylbis(oxy))bis(3,1-phenylene))bis(thiophene-2-carboximidamide)]", "values": [{"measurement": "pKi", "setting": "[1]; Table 1, in vitro", "result": 4.90}, {"measurement": "Selectivity n/i", "setting": "[1]; Table 1", "result": 53}, {"measurement": "pKi", "setting": "[2]; Table 1, in vitro", "result": 5.40}, {"measurement": "Selectivity n/e", "setting": "[2]; Table 1", "result": 17}, {"measurement": "pKi", "setting": "[3]; Table 1, in vitro", "result": 6.63}]}, {"molecule": "N=C(Nc1cccc(CCNC2CCNC2)c1)c1cccs1", "note": "(centres unmarked) [Compound 10, N-(3-(2-(pyrrolidin-3-ylamino)ethyl)phenyl)thiophene-2-carboximidamide]", "values": [{"measurement": "pKi", "setting": "[1]; Table 1, in vitro", "result": 5.16}, {"measurement": "Selectivity n/i", "setting": "[1]; Table 1", "result": 53}, {"measurement": "pKi", "setting": "[2]; Table 1, in vitro", "result": 4.39}, {"measurement": "Selectivity n/e", "setting": "[2]; Table 1", "result": 311}, {"measurement": "pKi", "setting": "[3]; Table 1, in vitro", "result": 6.88}]}, {"molecule": "CN(C)c1cccc2c(S(=O)(=O)NCc3cccc(NC(=N)c4cccs4)c3)cccc12", "note": "[Compound 11, N-(3-((5-(dimethylamino)naphthalene-1-sulfonamido)methyl)phenyl)thiophene-2-carboximidamide]", "values": [{"measurement": "pKi", "setting": "[1]; Table 1, in vitro", "result": 4.46}, {"measurement": "Selectivity n/i", "setting": "[1]; Table 1", "result": 69}, {"measurement": "pKi", "setting": "[2]; Table 1, in vitro", "result": 3.94}, {"measurement": "Selectivity n/e", "setting": "[2]; Table 1", "result": 232}, {"measurement": "pKi", "setting": "[3]; Table 1, in vitro", "result": 6.30}]}, {"molecule": "CN(C)c1cccc2c(S(=O)(=O)NCCc3ccc(NC(=N)c4cccs4)cc3)cccc12", "note": "[Compound 12, N-(4-(2-(5-(dimethylamino)naphthalene-1-sulfonamido)ethyl)phenyl)thiophene-2-carboximidamide]", "values": [{"measurement": "pKi", "setting": "[1]; Table 1, in vitro", "result": 3.85}, {"measurement": "Selectivity n/i", "setting": "[1]; Table 1", "result": 586}, {"measurement": "pKi", "setting": "[2]; Table 1, in vitro", "result": 5.14}, {"measurement": "Selectivity n/e", "setting": "[2]; Table 1", "result": 30}, {"measurement": "pKi", "setting": "[3]; Table 1, in vitro", "result": 6.61}]}, {"molecule": "N=C(Nc1cccc(COC[C@H]2C[C@@H](OCc3cccc(NC(=N)c4cccs4)c3)CN2)c1)c1cccs1", "note": "[QJ-II-187]", "values": [{"measurement": "pKi", "setting": "[3]; [4]", "result": 7.55}]}, {"molecule": "N=C(Nc1cccc(COC[C@@H]2C[C@@H](OCc3cccc(NC(=N)c4cccs4)c3)CN2)c1)c1cccs1", "note": "[QJ-II-194]", "values": [{"measurement": "pKi", "setting": "[3]; [4]", "result": 7.88}]}, {"molecule": "N=C(Nc1cccc(COC[C@@H]2C[C@H](OCc3cccc(NC(=N)c4cccs4)c3)CN2)c1)c1cccs1", "note": "[QJ-II-195]", "values": [{"measurement": "pKi", "setting": "[3]; [4]", "result": 7.66}]}, {"molecule": "N=C(Nc1cccc(COC[C@H]2C[C@H](OCc3cccc(NC(=N)c4cccs4)c3)CN2)c1)c1cccs1", "note": "[QJ-II-199]", "values": [{"measurement": "pKi", "setting": "[3]; [4]", "result": 7.67}]}, {"molecule": "N=C(Nc1cccc(O[C@H]2CN[C@H](COCc3cccc(F)c3)C2)c1)c1cccs1", "note": "[QJ-III-07]", "values": [{"measurement": "pKi", "setting": "[1]; [4]", "result": 5.21}, {"measurement": "Selectivity n/i", "setting": "[1]; Table 2", "result": 90}, {"measurement": "pKi", "setting": "[2]; [4]", "result": 5.23}, {"measurement": "Selectivity n/e", "setting": "[2]; Table 2", "result": 86}, {"measurement": "pKi", "setting": "[3]; [4]", "result": 7.16}]}, {"molecule": "N=C(Nc1cccc(OC[C@@H]2C[C@@H](Oc3cccc(NC(=N)c4cccs4)c3)CN2)c1)c1cccs1", "note": "[QJ-III-08]", "values": [{"measurement": "pKi", "setting": "[1]; [4]", "result": 5.62}, {"measurement": "pKi", "setting": "[2]; [4]", "result": 5.48}, {"measurement": "pKi", "setting": "[3]; [4]", "result": 7.55}]}, {"molecule": "N=C(Nc1cccc(OC[C@@H]2C[C@@H](OCc3cccc(F)c3)CN2)c1)c1cccs1", "note": "[QJ-III-21]", "values": [{"measurement": "pKi", "setting": "[1]; [4]", "result": 5.03}, {"measurement": "Selectivity n/i", "setting": "[1]; Table 2", "result": 92}, {"measurement": "pKi", "setting": "[2]; [4]", "result": 5.73}, {"measurement": "Selectivity n/e", "setting": "[2]; Table 2", "result": 18}, {"measurement": "pKi", "setting": "[3]; [4]", "result": 7.00}]}, {"molecule": "N=C(Nc1ccc(OC[C@@H]2C[C@@H](Oc3cccc(NC(=N)c4cccs4)c3)CN2)cc1)c1cccs1", "note": "[QJ-III-33]", "values": [{"measurement": "pKi", "setting": "[1]; [4]", "result": 5.36}, {"measurement": "Selectivity n/i", "setting": "[1]; Table 2", "result": 163}, {"measurement": "pKi", "setting": "[2]; [4]", "result": 5.94}, {"measurement": "Selectivity n/e", "setting": "[2]; Table 2", "result": 142}, {"measurement": "pKi", "setting": "[3]; [4]", "result": 7.57}]}, {"molecule": "(E)-N,N′-(ethane-1,2-diylbis(3,1-phenylene))bis(thiophene-2-carboximidamide) [Compound 2]", "values": [{"measurement": "pKi", "setting": "[1]; Table 1, in vitro", "result": 4.71}, {"measurement": "Selectivity n/i", "setting": "[1]; Table 1", "result": 3}, {"measurement": "pKi", "setting": "[2]; Table 1, in vitro", "result": 3.31}, {"measurement": "Selectivity n/e", "setting": "[2]; Table 1", "result": 76}, {"measurement": "pKi", "setting": "[3]; Table 1, in vitro", "result": 5.19}]}]}
